Data reported in US20080114005A1, “Fibrate Compounds Having Ppar Agonist Activity” (Dr. Reddy's Laboratories Limited, priority 2004, published 2008).
Where a name gives a salt, the structure may show the parent alone.

Assays:
human PPARδ = biological target: T1, human PPARδ (Homo sapiens, UniProt Q03181); assay: in vitro PPARδ transactivation, GAL4-LBD luciferase reporter in HEK-293 cells; type: cell-based; conditions: luciferase fold activation relative to untreated cells
T1 construct: expressed in transfected cells; host or cells: HEK-293
T1 sequence (Q03181 211-439 limits assumed): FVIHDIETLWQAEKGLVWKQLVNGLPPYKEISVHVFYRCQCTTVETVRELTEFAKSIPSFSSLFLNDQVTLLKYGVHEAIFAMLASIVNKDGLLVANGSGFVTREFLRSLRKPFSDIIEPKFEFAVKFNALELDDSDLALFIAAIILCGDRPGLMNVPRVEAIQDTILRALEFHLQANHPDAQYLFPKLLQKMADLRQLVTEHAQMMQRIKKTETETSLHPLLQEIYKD
Procedure: (§1) The following procedure was used for in vitro determination of PPARα, γ and δ transactivation.
(§2) The ligand binding domain of human PPARγ1, PPARα or PPARδ was fused to the C-terminal end of DNA binding domain of yeast transcription factor GAL4 in eukaryotic expression vector. HEK-293 cells were transfected with either of these plasmids, reporter plasmid pGL2 (Gal4×5)˜SV40˜Luc and pAdVantage using superfect (Qiagen, Germany) for 3 hours. pAdVantage vector was used to enhance the luciferase expression. 48 hours after transfection, the cells were harvested and incubated overnight with or without test compounds at different concentrations. The cells were lysed and luciferase activity was measured using the LucLite kit (Packard USA). Luciferase activity was measured as fold activation relative to untreated cells.

[1] = test system: hypercholesterolemic rat model; assay: plasma triglyceride and cholesterol lowering activity in hypercholesterolemic rat model; type: in vivo, Sprague Dawley rats; conditions: hypercholesterolemic rats, 3.0 mg/kg orally for 3 days; for Reduction (%) LDL: LDL cholesterol calculated by formula; for ↑HDL: increase of plasma HDL (under head Reduction (%)); for Reduction (%) TC: plasma total cholesterol; for Reduction (%) TG: plasma triglyceride
Procedure: The following procedure was used to determine plasma triglyceride and cholesterol lowering activity in hypercholesterolemic rat model.
Male Sprague Dawley rats (NIN stock) were bred in DRL animal house. Animals were maintained under 12 hour light and dark cycle at 25±1° C. Rats of 180-200 gram body weight range were used for the experiment. Animals are made hypercholesterolemic by feeding 2% cholesterol and 1% sodium cholate mixed with standard laboratory chow [National Institute of Nutrition (NIN), Hyderabad, India] for 6 days. Throughout the experimental period the animals were maintained on the same diet. The test compounds were administered orally at a dose mentioned in table for 3 days. Control group was treated with vehicle alone (0.25% CMC; 10 ml/kg). The blood samples were collected in fed state 1 hour after drug administration on 0 and 3 days of compound treatment. The blood was collected from the retro-orbital sinus through heparinised capillary in EDTA containing tubes. After centrifugation, plasma sample was separated for total cholesterol, HDL and triglyceride estimations. Measurement of plasma triglyceride, total cholesterol and HDL were done using commercial kits. LDL and VLDL cholesterol can be calculated from the data obtained for total cholesterol, HDL and triglyceride.
The percent reductions in blood sugar/triglycerides/total cholesterol were calculated according to the following formula:
OC=Zero day control group value
OT=Zero day treated group value
TC=Test day control group value
T=Test day treated group value.
The levels of LDL and VLDL cholesterol were calculated according to the formula:
VLDL cholesterol in mg/dl=[Total cholesterol-HDL cholesterol-LDL cholesterol] mg/dl.

human PPARα = biological target: T2, human PPARα (Homo sapiens, UniProt Q07869); assay: in vitro PPARα transactivation, GAL4-LBD luciferase reporter in HEK-293 cells; type: cell-based; conditions: luciferase fold activation relative to untreated cells
T2 construct: expressed in transfected cells; host or cells: HEK-293
T2 sequence (Q07869 239-466 limits assumed): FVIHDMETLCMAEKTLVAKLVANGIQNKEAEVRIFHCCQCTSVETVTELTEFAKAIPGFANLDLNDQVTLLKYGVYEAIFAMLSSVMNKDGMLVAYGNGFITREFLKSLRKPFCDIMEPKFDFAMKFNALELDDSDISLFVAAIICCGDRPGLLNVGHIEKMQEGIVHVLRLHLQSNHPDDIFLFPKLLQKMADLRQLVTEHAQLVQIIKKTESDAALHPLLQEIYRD
Description: A number of derivatives of the invention have shown PPAR agonist activity. The following procedure was used for in vitro determination of PPARα, γ and δ transactivation.
as §2

Swiss albino mice = assay: plasma triglyceride lowering activity in Swiss albino mice; type: in vivo; conditions: 3.0 mg/kg orally for 6 days
Procedure: The properties of the derivatives of the invention were also evaluated in vivo. The following procedure was used to determine plasma triglyceride and total cholesterol lowering activity in Swiss albino mice.
Male Swiss albino mice (SAM) were obtained from National Institute Nutrition (NIN) and housed in Dr. Reddy's Laboratories Ltd (DRL) animal house. All these animals are maintained under 12 hour light and dark cycle at 25±1° C. Animals were given standard laboratory chow (NIN, Hyderabad, India) and water, ad libitum. SAM of 20-25 grams body weight range were used. See Oliver, P., Plancke, M. O., Marzin, D., Clavey, V., Sauzieres, J and Fruchart, J. C. Effects of fenofibrate, gemfibrozil and nicotinic acid on plasma lipoprotein levels in normal and hyperlipidemic mice, Atherosclerosis. 1988. 70: 107-114, incorporated herein by reference in its entirety. The test compounds can be administered orally to Swiss albino mice at the dose mentioned in table for 6 days. Control mice were treated with vehicle 0.25% Carboxymethylcellulose (CMC; dose 10 ml/kg). The blood samples from the retro-orbital sinus through heparinised capillary in EDTA containing tubes were collected in fed state 1 hour after drug administration on 0 and 6 days of treatment. After centrifugation plasma was separated for triglyceride measurement using commercial kits. See Wieland, O. Methods of Enzymatic analysis. Bergermeyer, H. O., Ed., 1963. 211-214; Trinder, P. Ann. Clin. Biochem. 1969. 6: 24-27, incorporated herein by reference in its entirety. Percent reduction was calculated as per the formula given in Petit, D., Bonnefis, M. T., Rey, C. and Infante, R. Effects of ciprofibrate on liver lipids and lipoprotein synthesis in normo- and hyperlipidemic rats. Atherosclerosis. 1988. 74 : 215-225.

human PPARγ1 = biological target: T3, human PPARγ1 (Homo sapiens, UniProt P37231); assay: in vitro PPARγ transactivation, GAL4-LBD luciferase reporter in HEK-293 cells; type: cell-based; conditions: luciferase fold activation relative to untreated cells
T3 construct: expressed in transfected cells; host or cells: HEK-293
T3 sequence (P37231 238-503 limits assumed): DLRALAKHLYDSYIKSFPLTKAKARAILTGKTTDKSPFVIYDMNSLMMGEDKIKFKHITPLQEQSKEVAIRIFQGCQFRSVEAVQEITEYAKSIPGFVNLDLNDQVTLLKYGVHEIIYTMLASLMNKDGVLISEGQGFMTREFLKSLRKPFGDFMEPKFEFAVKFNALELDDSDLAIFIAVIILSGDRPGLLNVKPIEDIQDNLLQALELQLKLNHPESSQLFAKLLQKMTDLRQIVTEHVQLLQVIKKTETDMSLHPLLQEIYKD
Procedure: as §1, §2

SMILES	PPARδ activation (human PPARδ; test compound at 1 μM)	PPARδ activation (human PPARδ; test compound at 10 μM)	Reduction (%) LDL [1]	↑HDL [1]	Reduction (%) TC [1]	Reduction (%) TG [1]	PPARα activation (human PPARα; test compound at 1 μM)	PPARα activation (human PPARα; test compound at 10 μM)	% reduction in TG (Swiss albino mice)	melting point	PPARγ activation (human PPARγ1; test compound at 1 μM)	PPARγ activation (human PPARγ1; test compound at 10 μM)	Reduction (%) LDL ([1]; 3 mg/kg)	↑HDL ([1]; 3 mg/kg)	Reduction (%) TC ([1]; 3 mg/kg)	Reduction (%) TG ([1]; 3 mg/kg)	% reduction in TG (Swiss albino mice; 3 mg/kg)
CCCc1nn(C)c2c(=O)n(CCCc3cccc(OC(C)(C)C(=O)O)c3)c(C)nc12.N=C(N)NCCC[C@H](N)C(=O)O [Example 82, Argenine salt of 2-{3-[3-(1,5-dimethyl-7-oxo-3-propyl-1,7-dihydro-pyrazolo[4,3-d]pyrimidin-6-yl)-propyl]-phenoxy}-2-methyl-propionic acid]	0	0	72%	48%	68%	69%	7.1	8.4	81%	–	–	–	–	–	–	–	–
CCCc1nn(C)c2c(=O)n(CCOc3cccc(OC(C)(C)C(=O)O)c3)c(C)nc12 [Example 89, 2-{3-[2-(1,5-Dimethyl-7-oxo-3-propyl-1,7-dihydro-pyrazolo[4,3-d]pyrimidin-6-yl)-ethoxy]-phenoxy}-2-methyl-propionic acid]	0	0.4	68%	102%	65%	68%	2.1	7.4	60%	140 to 142 °C	0(54.5)	0(62.8)	–	–	–	–	–
CCCc1nn(C)c2c(=O)n(CCCc3ccc(OC(C)(CC)C(=O)O)cc3)c(C)nc12 (stereo not drawn) [Example 95, 2-{4-[3-(1,5-Dimethyl-7-oxo-3-propyl-1,7-dihydro-pyrazolo[4,3-d]pyrimidin-6-yl)-propyl]-phenoxy}-2-methyl-butyric acid]	0.1	4.0	–	–	–	–	6.4	7.3	–	–	17.3(85.5)	36.6(110.3)	69%	212%	64%	67%	63%
CCCc1nn(C)c2c(=O)n(CCOc3cccc(O[C@@](C)(CC)C(=O)O)c3)c(C)nc12 [Example 104, S-(−)-2-{3-[2-(1,5-Dimethyl-7-oxo-3-propyl-1,7-dihydro-pyrazolo[4,3-d]pyrimidin-6-yl)-ethoxy]-phenoxy}-2-methyl-butyric acid]	–	–	77%	158%	71%	72%	–	–	70%	119 to 120 °C	–	–	–	–	–	–	–
CCCc1nn(C)c2c(=O)n(CCOc3cc(O[C@](C)(CC)C(=O)O)ccc3Cl)c(C)nc12 [Example 102, R-(+)-2-{4-Chloro-3-[2-(1,5-dimethyl-7-oxo-3-propyl-1,7-dihydro-pyrazolo[4,3-d]pyrimidin-6-yl)-ethoxy]-phenoxy}-2-methyl-butyric acid]	1.7	1.3	55%	45%	51%	51%	3.9	5.2	67%	98 to 100 °C	–	–	–	–	–	–	–
CCCc1nn(C)c2c(=O)n(CCOc3cccc(O[C@](C)(CC)C(=O)O)c3)c(C)nc12 [Example 100, R-(+)-2-{3-[2-(1,5-Dimethyl-7-oxo-3-propyl-1,7-dihydro-pyrazolo[4,3-d]pyrimidin-6-yl)-ethoxy]-phenoxy}-2-methyl-butyric acid]	–	–	76%	145%	70%	60%	–	–	76%	118 to 120 °C	–	–	–	–	–	–	–
CCCc1nn(C)c2c(=O)n(CCCc3ccc(OC(C)(C)C(=O)O)cc3)c(C)nc12.N=C(N)NCCC[C@H](N)C(=O)O [Example 79, Argenine salt of 2-{4-[3-(1,5-dimethyl-7-oxo-3-propyl-1,7-dihydro-pyrazolo[4,3-d]pyrimidin-6-yl)-propyl]-phenoxy}-2-methyl-propionic acid]	–	–	–	–	–	–	–	–	55%	–	–	–	–	–	–	–	–
CCCc1nn(C)c2c(=O)n(CCCc3ccc(OC(C)(CC)C(=O)O)cc3)c(C)nc12 (stereo not drawn) [Example 96, Magnesium salt of 2-{4-[3-(1,5-dimethyl-7-oxo-3-propyl-1,7-dihydro-pyrazolo[4,3-d]pyrimidin-6-yl)-propyl]-phenoxy}-2-methyl-butyric acid]	–	–	–	–	–	–	–	–	–	–	–	–	67%	162%	63%	76%	60%
